According to patent publication US20230149393A1, “INHIBITORS OF TRPC6 FOR TREATING RESPIRATORY CONDITIONS” (Boehringer Ingelheim International GmbH, priority 2020, published 2023):

What was measured:
[1] = Phase 1 study, healthy adults; cited from earlier work
[2] = tested on: virus Influenza A (strain: PR8/34/H1N1); assay: Reduction of H1N1-induced vascular leakage in a mouse model (BALF Evans blue); assay type: in vivo, Mice; settings: 3 mg/kg p.o., 2 h after inoculation and once daily day 1 to day 4; day 6 after inoculation
Procedure: Mice were inoculated intranasally with 200 PFU (Plaque Formation Unit) of virus Influenza A (strain: PR8/34/H1N1). […] was given at 3 mg/kg p.o. 2 h after inoculation and once daily from day 1 to day 4. Evans blue was injected intravenously on day 6, 30 min prior to the euthanasia. […] The supernatant was collected for the measurement of Evans blue by spectrophotometry at the absorbance of 620 nm
At day 6 after inoculation, H1N1 induced lung vascular leakage characterized by an increase in Evans blue extravasation from the blood to the BALF.

[3] = tested on: LPS-induced vascular leakage; assay: Reduction of LPS-induced vascular leakage in a mouse model (BALF protein); settings: FIGS. 1A, 1B and 1C; LPS aerosol mouse model
[4] = tested on: TRPC6; settings: lung tissue of IPAH patients; cited from earlier work
[5] = tested on: PASMC; settings: cited from earlier work

COc1cc(C(=O)N2CCC(c3ccc(N)nn3)CC2)ncc1Oc1ccc(F)cc1 [BI 764198]
tolerability [1]: well tolerated

COc1cc(C(=O)N2CCC(c3ccc(N)nn3)CC2)ncc1Oc1ccc(F)cc1 [Compound 17, [4-(6-Amino-pyridazin-3-yl)-piperidin-1-yl]-[5-(4-fluoro-phenoxy)-4-methoxy-pyridin-2-yl]-methanone]
reduction of BALF Evans blue [2]: 24%
pulmonary vascular leakage [3]: significantly reduces pulmonary vascular leakage

COc1ccccc1Oc1c(NS(=O)(=O)c2ccc(C(C)(C)C)cc2)nc(-c2ncccn2)nc1OCCO [bosentan]
expression of TRPC6 [4]: decreases expression of TRPC6
proliferation of PASMC [5]: decreases proliferation of PASMC
